Reference: US20100144767A1, “Use of sodium channel blockers for the treatment of visceral pain or pain caused by cancer treatment” (priority 2005, published 2010)
Values joined by “and” are separate entries in the source; they are usually repeats but may differ in a detail not shown here. Equal entries are not always repeated.

Experiments:
[1] = test system: postoperative pain (incised hind paw withdrawal latency); assay: Postoperative pain, thermal stimulus, four days of pre-treatment; type: in vivo, rats
Description: The studied compounds (dypirone at 40 mg/kg and tetrodotoxin at 0, 3, 4 μg/kg) were administered subcutaneously to groups of 12 male rats twice daily for 4 days. On the morning of Day 5, an incision was made in the hind paw of the rats. One hour later, the compounds were administered again and 30 minutes later, a thermal stimulus was applied in the incised paw and the latency to withdraw the hind paws was recorded.

[2] = test system: capsaicin-induced nociceptive behaviours; assay: Visceral pain model: capsaicin solution delivered to the colon, nociceptive behaviours counted for 30 min; set-up: species or system mice; conditions: mouse, in vivo
[3] = test system: postoperative pain (incised hind paw withdrawal latency); assay: Postoperative pain, thermal stimulus, acute treatment (hind paw incision); type: in vivo, rats; conditions: Rattus norvegicus, iv
[4] = test system: formalin-induced inflammation; set-up: species or system rats; conditions: rat, in vivo
[5] = test system: carrageenan-induced inflammatory pain; set-up: species or system SD rats; conditions: rat, in vivo
[6] = test system: pain (visceral pain, pain caused by therapy); conditions: human, in vivo
[7] = test system: moderate to severe pain associated with cancer; set-up: species or system human; conditions: in vivo

Cc1c(N(C)CS(=O)(=O)[O-])c(=O)n(-c2ccccc2)n1C.[Na+] [Dypirone, reference compound]
antinociceptive activity ([1]; 40 mg/kg s.c. b.i.d., four days of pre-treatment): 40%

CN1CC[C@]23c4c5ccc(O)c4O[C@H]2[C@@H](O)C=C[C@H]3[C@H]1C5 [Morphine]
effects on capsaicin-induced nociceptive behaviours versus control [2]: 54.8% and 92.5% and 100% | ED50 [3]: 0.59 mg/kg

N=C1NC(O)C2C3OC4(O)OC(C(O)C2(N1)C4O)C3(O)CO (stereo not drawn) [Tetrodotoxin, octahydro-12-(hydroxymethyl)-2-imino-5,9:7,10a-dimethano-10aH-[1,3]dioxocino[6,5-d]pyrimidine-4,7,10,11,12-pentol]
effective dosage [4]: 2.5 µg/mg | effects on capsaicin-induced nociceptive behaviours versus control ([2]; sc): 30% and 58.8% | effect upon the degree of inflammation [5]: does not have any effect | nociceptive threshold, Randall-Selitto test (paw pressure) ([5]; sc): higher nociceptive threshold | analgesic response [6]: no analgesic response | decrease in current and average pain intensity [6]: about 2 point | most pain relief percentage [6]: 89% | pain score [6]: 7 /10 and 4 /10 | relief of pain [6]: complete relief of their pain | impression of change [7]: 1 | total response day [7]: 66 days | antinociceptive activity ([1]; rat, in vivo): 35% and 39%
